Tests used:
[1] = test system: U-87MG cells; experiment: Cell death in U-87MG by free and PLGA-encapsulated peptide; assay type: cell-based, human; details: 12 h, PI staining and FACS; Fig 7B
Method: B. U-87MG cells (2×10^5) were incubated for 12 h with the indicated concentrations of DMSO, Retro-Tf-D-LP4 peptide (Pep), or Retro-Tf-D-LP4 encapsulated in PLGA nanoparticles (PLGA-Pep). Samples of Retro-Tf-D-LP4 encapsulated in PLGA nanoparticles were centrifuged (15000g, 5 min) to separate the supernatant (Sup), containing free peptide, and the pellet, containing encapsulated Retro-Tf-D-LP4 peptide. Cell death was analyzed by PI staining and FACS analysis. C. Graphical representation of the orthotopic animal experiment. […] E. Calculated tumor volumes after 20 (dark grey bars) and 29 (light grey bars) days post-treatment start. […]
100% DMSO and then diluted 20-fold with sterile DDW into three groups (6 animals/group) and treated every to reach a concentration of 25 mg/ml in a final DMSO third day with DMSO (1.44%), Retro-Tf-D-LP4 (10 concentration of 5%. PLGA (50 mg) was dissolved in mg/kg) or Retro-Tf-D-LP4 (10 mg/kg) encapsulated by acetone (1 ml). […] Tumor volume was analyzed using VivoQuant 2.10 10 ml of aqueous solution containing 1% PVA (w/v). […]
(Calbiochem, UK). […] Thirteen days post-inoculation, using various primary antibodies (sources and dilutions tumor volume was measured and calculated (100-130 as detailed in supplementary Table 2), followed by mm3) and mice were randomized into three groups (5 the appropriate HRP-conjugated secondary antibodies mice/group). […]

[2] = test system: SH-SY5Y cells; experiment: Apoptosis by acridine orange/ethidium bromide staining, SH-SY5Y; assay type: cell-based, human; details: 3 h, Suppl Fig 2B
Method: […] The cells were then trypsinized, centrifuged (1500xg, 5 min), washed with PBS and analyzed for cell death using propidium iodide (PI) staining and flow cytometer (Beckton-Dickinson, San Jose, CA) and BD CellQuest Pro software. Apoptotic cell death was also analyzed by PI and annexin V-FITC staining, and by acridine orange and ethidium bromide staining and light microscopy (Olympus LX2-KSP).
Supplementary Figure 2: Mode of action of VDAC1-based peptides. […]
detachment. SH-SY5Y cells (4×10^4/ml) were grown on cover slips, transfected with plasmid pEGFP-HK-I and after 24 h, were incubated […]
The final DMSO concentration in control and peptide-treated cells was 0.07%. Fixed cells were stained with DAPI and visualized by confocal microscopy (Olympus 1X81). Arrows indicate cells […]
showing diffusion of HK-I-GFP. B-C. […] B. SH-SY5Y cells were treated with the indicated […]
Arrows and arrowheads indicate cells with membrane blebbing (early apoptotic state) and late apoptotic states, respectively. C. Morphological analysis of apoptosis by electron microscopy (EM). For transmission EM, U-87MG cells (1.6 x10^6 /ml) were incubated with the indicated concentrations of D-ΔN-Ter-Antp peptide or DMSO (0.3% final concentration) for 6 h in serum-free medium. […]

CC[C@H](C)[C@H](NC(=O)[C@H](Cc1ccc(O)cc1)NC(=O)[C@@H]1CCCN1C(=O)[C@H](CCCNC(=N)N)NC(=O)[C@H](Cc1c[nH]cn1)NC(=O)[C@H](CO)NC(=O)[C@H](Cc1c[nH]c2ccccc12)NC(=O)[C@@H](NC(=O)[C@H](Cc1c[nH]c2ccccc12)NC(=O)[C@H](CCC(=O)O)NC(=O)[C@@H](CCCCN)NC(=O)[C@@H](CCCCN)NC(=O)[C@@H](CC(C)C)NC(=O)[C@@H](CCC(=O)O)NC(=O)[C@H](NC(=O)[C@@H](C)NC(=O)[C@H](NC(=O)[C@@H](CC(N)=O)NC(=O)[C@@H](CC(C)C)NC(=O)[C@@H](C)NC(=O)[C@@H](Cc1c[nH]c2ccccc12)NC(=O)[C@H](NC(=O)[C@@H](C)NC(=O)CNC(=O)[C@@H](CC(N)=O)NC(=O)[C@@H](CO)NC(=O)[C@@H](CC(N)=O)NC(=O)[C@H](CCCCN)NC(=O)[C@H](Cc1c[nH]c2ccccc12)NC(=O)[C@@H](NC(=O)[C@H](Cc1c[nH]c2ccccc12)NC(=O)[C@@H](N)CCCCN)[C@@H](C)O)[C@H](C)O)C(C)C)[C@H](C)O)[C@@H](C)O)C(=O)N[C@@H](C)C(=O)N[C@@H](Cc1c[nH]cn1)C(=O)O [Retro-Tf-D-LP4]
cell death, U-87MG [1]: induces cell death

CC[C@H](C)[C@H](NC(=O)[C@H](C)NC(=O)[C@@H](N)Cc1c[nH]cn1)C(=O)N[C@@H](Cc1ccc(O)cc1)C(=O)N1CCC[C@H]1C(=O)N[C@@H](CCCNC(=N)N)C(=O)N[C@@H](Cc1c[nH]cn1)C(=O)N[C@@H](CO)C(=O)N[C@@H](Cc1c[nH]c2ccccc12)C(=O)N[C@H](C(=O)N[C@@H](Cc1c[nH]c2ccccc12)C(=O)N[C@@H](CCC(=O)O)C(=O)N[C@H](CCCCN)C(=O)N[C@H](CCCCN)C(=O)N[C@H](CC(C)C)C(=O)N[C@H](CCC(=O)O)C(=O)N[C@@H](C(=O)N[C@H](C)C(=O)N[C@@H](C(=O)N[C@H](CC(N)=O)C(=O)N[C@H](CC(C)C)C(=O)N[C@H](C)C(=O)N[C@H](Cc1c[nH]c2ccccc12)C(=O)N[C@@H](C(=O)N[C@H](C)C(=O)NCC(=O)N[C@H](CC(N)=O)C(=O)N[C@H](CO)C(=O)N[C@H](CC(N)=O)C(=O)N[C@@H](CCCCN)C(=O)N[C@@H](Cc1c[nH]c2ccccc12)C(=O)N[C@H](C(=O)N[C@@H](Cc1c[nH]c2ccccc12)C(=O)N[C@@H](CCCCN)C(=O)O)[C@@H](C)O)[C@H](C)O)C(C)C)[C@H](C)O)[C@@H](C)O [Tf-D-LP4]
apoptosis induction, SH-SY5Y [2]: induce apoptosis
